Measured values: patent US11033539B2, “Compounds of formulas (VII), (VIII), (IX), (XI), (XII), (XIII), and (XIV) as muscarinic receptor 4(M4) antagonists for treating neurological diseases” (Neurocrine Biosciences, Inc., priority 2015, dated 2021)

biological target: human M4 receptor (Homo sapiens (Human), UniProt P08173); assay: Radioligand (tritiated N-methylscopolamine) binding assay, M4; conditions: Ki against the M4 receptor; membranes from CHO cells expressing human M4; tritiated N-methylscopolamine 1.5 nM; read-out: Ki
Sequence (P08173 whole entry): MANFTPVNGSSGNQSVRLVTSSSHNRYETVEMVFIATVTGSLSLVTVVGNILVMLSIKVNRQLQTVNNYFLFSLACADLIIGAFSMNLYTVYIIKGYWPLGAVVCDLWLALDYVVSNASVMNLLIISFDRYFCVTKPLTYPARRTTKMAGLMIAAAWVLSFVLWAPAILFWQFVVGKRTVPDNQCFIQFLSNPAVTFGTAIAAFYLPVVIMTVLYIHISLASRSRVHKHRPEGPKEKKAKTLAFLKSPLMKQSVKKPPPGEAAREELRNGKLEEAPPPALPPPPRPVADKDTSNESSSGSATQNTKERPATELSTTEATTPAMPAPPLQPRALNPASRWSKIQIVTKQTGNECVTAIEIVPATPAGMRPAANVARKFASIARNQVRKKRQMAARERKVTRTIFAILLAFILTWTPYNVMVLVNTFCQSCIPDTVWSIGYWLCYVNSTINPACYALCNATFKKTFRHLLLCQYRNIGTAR
How it was run: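 Ki values come from displacement of 1.5 nM radioligand from membranes of receptor-expressing CHO cells, with filter-trapped radioactivity counted after rapid vacuum filtration. Twelve compound concentrations (10 μM to […]) were incubated for 90 min at 37 °C at pH 7.4.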

Ki | Structure (SMILES)
10 to 100 nM | Cc1ccc(-c2ccc(C(=O)NCCC3CCN(Cc4ccccc4)CC3)c(F)c2)cc1 [9-40, N-[2-(1-benzylpiperidin-4-yl)ethyl]-2-fluoro-4-(4-methylphenyl)benzamide]
10 to 100 nM | O=C(NCCC1CCN(Cc2ccccc2)CC1)c1ccc(-c2ccc(F)cc2)cc1 [9-41, N-[2-(1-benzylpiperidin-4-yl)ethyl]-4-(4-fluorophenyl)benzamide]
100 to 1000 nM | CN(CCC1CC[N+](C)(Cc2ccccc2)CC1)C(=O)C1CCN(c2ccc(OC(F)(F)F)cc2)CC1 (centres unmarked) [9-42, 1-benzyl-1-methyl-4-[2-(N-methyl-1-{1-[4-(trifluoromethoxy)phenyl]piperidin-4-yl}formamido)ethyl]piperidin-1-ium]
100 to 1000 nM | O=C(Cc1ccc(OCc2ccccc2)cc1)NCCC1CCN(Cc2ccccc2)CC1 [9-43, 2-[4-(benzyloxy)phenyl]-N-[2-(1-benzylpiperidin-4-yl)ethyl]acetamide]
10 to 100 nM | N#Cc1cc(N2CCC(C(=O)NCCC3(O)CCN(Cc4ccccc4)CC3)CC2)ccc1F [9-44, N-[2-(1-benzyl-4-hydroxypiperidin-4-yl)ethyl]-1-(3-cyano-4-fluorophenyl)piperidine-4-carboxamide]
10 to 100 nM | CCCn1c(=O)c2nc(-c3ccc(C(=O)NCCC4CCN(Cc5ccccc5)CC4)cc3)[nH]c2n(CCC)c1=O [9-45, N-[2-(1-benzylpiperidin-4-yl)ethyl]-4-(2,6-dioxo-1,3-dipropyl-2,3,6,9-tetrahydro-1H-purin-8-yl)benzamide]
10 to 100 nM | O=C(NCCC1(O)CCN(Cc2ccccc2)CC1)C1CCN(c2cccc(OC(F)(F)F)c2)CC1 [9-46, N-[2-(1-benzyl-4-hydroxypiperidin-4-yl)ethyl]-1-[3-(trifluoromethoxy)phenyl]piperidine-4-carboxamide]
100 to 1000 nM | N#Cc1ccc(N2CCC(C(=O)NCCC3CCN(Cc4ccccc4)CC3)CC2)nc1 [9-47, N-[2-(1-benzylpiperidin-4-yl)ethyl]-1-(5-cyanopyridin-2-yl)piperidine-4-carboxamide]
100 to 1000 nM | O=C(c1ccn2cc(-c3ccc(OC(F)(F)F)cc3)nc2c1)N(C1CC1)C1CCN(Cc2ccccc2)CC1 [9-48, N-(1-benzylpiperidin-4-yl)-N-cyclopropyl-2-[4-(trifluoromethoxy)phenyl]imidazo[1,2-a]pyridine-7-carboxamide]
100 to 1000 nM | O=C(NCC[C@H]1CCN(Cc2ccccc2)C1)C1CCN(c2ccc(OC(F)(F)F)cc2)CC1 [9-49, N-{2-[(3S)-1-benzylpyrrolidin-3-yl]ethyl}-1-[4-(trifluoromethoxy)phenyl]piperidine-4-carboxamide]
100 to 1000 nM | O=C(CCC1CCN(Cc2ccccc2)CC1)NC1CCN(c2cccc(OC(F)(F)F)c2)CC1 [9-50, 3-(1-benzylpiperidin-4-yl)-N-{1-[3-(trifluoromethoxy)phenyl]piperidin-4-yl}propanamide]
100 to 1000 nM | COc1ccc(-c2cc3ncc(C(=O)NCCC4CCN(Cc5ccccc5)CC4)c(C)n3n2)cc1 [9-51, N-[2-(1-benzylpiperidin-4-yl)ethyl]-2-(4-methoxyphenyl)-7-methylpyrazolo[1,5-a]pyrimidine-6-carboxamide]
100 to 1000 nM | Cc1ccnc(N2CCC(C(=O)NCCC3CCN(Cc4ccccc4)CC3)CC2)c1 [9-52, N-[2-(1-benzylpiperidin-4-yl)ethyl]-1-(4-methylpyridin-2-yl)piperidine-4-carboxamide]
100 to 1000 nM | O=C(c1ccc(-c2cccs2)cc1)N(C1CC1)C1CCN(Cc2ccccc2)CC1 [9-53, N-(1-benzylpiperidin-4-yl)-N-cyclopropyl-4-(thiophen-2-yl)benzamide]
100 to 1000 nM | O=C(NCCN[C@@H]1CCN(Cc2ccccc2)C1)C1CCN(c2cccc(OC(F)(F)F)c2)CC1 [9-54, N-(2-{[(3R)-1-benzylpyrrolidin-3-yl]amino}ethyl)-1-[3-(trifluoromethoxy)phenyl]piperidine-4-carboxamide]
100 to 1000 nM | O=C(NCCC1CCN(Cc2ccccc2)CC1)c1ccc(-c2cccs2)cc1 [9-55, N-[2-(1-benzylpiperidin-4-yl)ethyl]-4-(thiophen-2-yl)benzamide]
100 to 1000 nM | O=C(NCCC1CCN(Cc2ccccc2)CC1)c1ccc(SC(F)(F)F)cc1 [9-56, N-[2-(1-benzylpiperidin-4-yl)ethyl]-4-[(trifluoromethyl)sulfanyl]benzamide]
100 to 1000 nM | Cc1nc(-c2ccc(F)nc2)sc1C(=O)NCCC1CCN(Cc2ccccc2)CC1 [9-57, N-[2-(1-benzylpiperidin-4-yl)ethyl]-2-(6-fluoropyridin-3-yl)-4-methyl-1,3-thiazole-5-carboxamide]
100 to 1000 nM | O=C(C1CCN(c2ncc(C(F)(F)F)cc2Cl)CC1)N(CCC1CCN(Cc2ccccc2)CC1)C1CC1 [9-58, N-[2-(1-benzylpiperidin-4-yl)ethyl]-1-[3-chloro-5(trifluoromethyl)pyridin-2-yl]-N-cyclopropylpiperidine-4-carboxamide]

Ki | Structure (SMILES)
100 to 1000 nM | COc1ccc(-c2cc(C(F)(F)F)n3nc(C(=O)NCCC4CCN(Cc5ccccc5)CC4)cc3n2)cc1 [9-59, N-[2-(1-benzylpiperidin-4-yl)ethyl]-5-(4-methoxyphenyl)-7-(trifluoromethyl)pyrazolo[1,5-a]pyrimidine-2-carboxamide]
100 to 1000 nM | N#Cc1cc2ccccc2nc1-c1cc(C(=O)NCCC2CCN(Cc3ccccc3)CC2)ccc1Cl [9-60, N-[2-(1-benzylpiperidin-4-yl)ethyl]-4-chloro-3-(3-cyanoquinolin-2-yl)benzamide]
100 to 1000 nM | Cc1[nH]c(-c2ccc(Cl)cc2Cl)nc1C(=O)NCCC1CCN(Cc2ccccc2)CC1 [9-61, N-[2-(1-benzylpiperidin-4-yl)ethyl]-2-(2,4-dichlorophenyl)-5-methyl-1H-imidazole-4-carboxamide]
100 to 1000 nM | O=C(NCC1CCN(Cc2ccccc2)CC1)C1CCN(c2ncc(C(F)(F)F)cc2Cl)CC1 [9-65, N-[(1-benzylpiperidin-4-yl)methyl]-1-[3-chloro-5-(trifluoromethyl)pyridin-2-yl]piperidine-4-carboxamide]
100 to 1000 nM | O=C(NCC[C@@H]1CCN(Cc2ccccc2)C1)C1CCN(c2ccc(OC(F)(F)F)cc2)CC1 [9-66, N-{2-[(3R)-1-benzylpyrrolidin-3-yl]ethyl}-1-[4-(trifluoromethoxy)phenyl]piperidine-4-carboxamide]
100 to 1000 nM | Cc1cc(Cl)c(-c2cc(C(=O)NCCC3CCN(Cc4ccccc4)CC3)ccc2Cl)cn1 [9-67, N-[2-(1-benzylpiperidin-4-yl)ethyl]-4-chloro-3-(4-chloro-6-methylpyridin-3-yl)benzamide]
100 to 1000 nM | O=C(NCCN1CCC(Cc2ccccc2)CC1)c1ccn2cc(-c3ccc(OC(F)(F)F)cc3)nc2c1 [9-68, N-[2-(4-benzylpiperidin-1-yl)ethyl]-2-[4-(trifluoromethoxy)phenyl]imidazo[1,2-a]pyridine-7-carboxamide]
100 to 1000 nM | O=C(NCCC1CCN(Cc2ccccc2)CC1)c1ccc(-c2ccc(O)cc2)cc1 [9-69, N-[2-(1-benzylpiperidin-4-yl)ethyl]-4-(4-hydroxyphenyl)benzamide]
100 to 1000 nM | Cc1nc(C(=O)NCCC2CCN(Cc3ccccc3)CC2)cn1-c1ccc(C#N)cn1 [9-74, N-[2-(1-benzylpiperidin-4-yl)ethyl]-1-(5-cyanopyridin-2-yl)-2-methyl-1H-imidazole-4-carboxamide]
100 to 1000 nM | N#Cc1ccc(-n2cnc(C(=O)NCCC3CCN(Cc4ccccc4)CC3)c2)nc1 [9-75, N-[2-(1-benzylpiperidin-4-yl)ethyl]-1-(5-cyanopyridin-2-yl)-1H-imidazole-4-carboxamide]
10 to 100 nM | O=C(NCCC1CCN(Cc2ccccc2)CC1)C1CCN(c2ccc(OC(F)(F)F)cn2)CC1 [10-1, N-[2-(1-benzylpiperidin-4-yl)ethyl]-1-[5-(trifluoromethoxy)pyridin-2-yl]piperidine-4-carboxamide]
100 to 1000 nM | COc1ccc(N2CCC(C(=O)NCCC3CCN(Cc4ccccc4)CC3)CC2)cc1C#N [10-2, N-[2-(1-benzylpiperidin-4-yl)ethyl]-1-(3-cyano-4-methoxyphenyl)piperidine-4-carboxamide]
100 to 1000 nM | O=C(NCCC1CCN(Cc2ccccc2)CC1)C1CCN(c2ccccc2)CC1 [10-3, N-[2-(1-benzylpiperidin-4-yl)ethyl]-1-phenylpiperidine-4-carboxamide]
100 to 1000 nM | CC1(C(=O)NCCC2CCN(Cc3ccccc3)CC2)CCN(c2ccccc2OC(F)(F)F)CC1 [10-4, N-[2-(1-benzylpiperidin-4-yl)ethyl]-4-methyl-1-[2-(trifluoromethoxy)phenyl]piperidine-4-carboxamide]
100 to 1000 nM | N#Cc1cncc(N2CCC(C(=O)NCCC3CCN(Cc4ccccc4)CC3)CC2)c1 [10-15, N-[2-(1-benzylpiperidin-4-yl)ethyl]-1-(5-cyanopyridin-3-yl)piperidine-4-carboxamide]
100 to 1000 nM | CC1CN(c2ccccc2OC(F)(F)F)CCC1C(=O)NCCC1CCN(Cc2ccccc2)CC1 (centres unmarked) [10-16, N-[2-(1-benzylpiperidin-4-yl)ethyl]-3-methyl-1-[2-(trifluoromethoxy)phenyl]piperidine-4-carboxamide]
100 to 1000 nM | O=C(NCCC1CCN(Cc2ccccc2)CC1)C1(F)CCN(c2ccccc2OC(F)(F)F)CC1 [10-17, N-[2-(1-benzylpiperidin-4-yl)ethyl]-4-fluoro-1-[2-(trifluoromethoxy)phenyl]piperidine-4-carboxamide]
10 to 100 nM | O=C(NCCC1CCN(Cc2ccccc2)CC1)C1CCN(c2ccc(C(F)(F)F)cn2)CC1 [10-24, N-[2-(1-benzylpiperidin-4-yl)ethyl]-1-[5-(trifluoromethyl)pyridin-2-yl]piperidine-4-carboxamide]
10 to 100 nM | CC1(C(=O)NCCC2CCN(Cc3ccccc3)CC2)CCN(c2cccc(OC(F)(F)F)c2)CC1 [10-25, N-[2-(1-benzylpiperidin-4-yl)ethyl]-4-methyl-1-[3-(trifluoromethoxy)phenyl]piperidine-4-carboxamide]
